The source made the active and inactive calls. No cut-off for these calls is given here.

Test [1] relates to P388. The experiment in a line: In-vivo antileukemic activity against mouse P388 cells assessed as host survival at 50 mg/kg qd relative to control. It is filed as functional.
Test [2] concerns P388. The experiment in a line: In-vivo antileukemic activity against mouse P388 cells assessed as host survival at 100 mg/kg qd. Also on record: dose 100 mg/kg. It is filed as functional, organism-based.
The test system of test [3] is P388. The experiment in a line: In-vivo antileukemic activity against mouse P388 cells assessed as host survival at 400 mg/kg qd relative to control. Format: functional.
The subject of test [4] is P388. The experiment in a line: In-vivo antileukemic activity against mouse P388 cells assessed as host survival at 100 mg/kg qd relative to control. It is filed as functional.
Test [5] deals with P388. The experiment in a line: In-vivo antileukemic activity against mouse P388 cells assessed as host survival at 25 mg/kg qd relative to control. Format: functional.
The subject of test [6] is P388. The experiment in a line: In-vivo antileukemic activity against mouse P388 cells assessed as host survival at 25 mg/kg qd. Format: functional, organism-based. Also on record: dose 25 mg/kg.
Test [7] concerns P388. The experiment in a line: In-vivo antileukemic activity against mouse P388 cells assessed as host survival at 200 mg/kg qd. It is filed as functional, organism-based. Further details: dose 200 mg/kg.
Test [8] deals with P388. The experiment in a line: In-vivo antileukemic activity against mouse P388 cells assessed as host survival at 200 mg/kg qd relative to control. Format: functional.
In test [9] the test system is P388. The experiment in a line: In-vivo antileukemic activity against mouse P388 cells assessed as host survival at 50 mg/kg qd. It is filed as functional, organism-based. Also on record: dose 50 mg/kg.
Test [10] relates to P388. The experiment in a line: In-vivo antileukemic activity against mouse P388 cells assessed as host survival at 32 mg/kg qd relative to control. It is filed as functional.
Test [11] has as its system P388. The experiment in a line: In-vivo antileukemic activity against mouse P388 cells assessed as host survival at 128 mg/kg qd relative to control. Format: functional.
For test [12], the system named is P388. The experiment in a line: In-vivo antileukemic activity against mouse P388 cells assessed as host survival at 5 mg/kg qd. Further details: dose 5 mg/kg. It is filed as functional, organism-based.
The test system of test [13] is P388. The experiment in a line: In-vivo antileukemic activity against mouse P388 cells assessed as host survival at 8 mg/kg qd relative to control. It is filed as functional.
The subject of test [14] is P388. The experiment in a line: In-vivo antileukemic activity against mouse P388 cells assessed as host survival at 80 mg/kg qd relative to control. It is filed as functional.
In test [15] the test system is P388. The experiment in a line: In-vivo antileukemic activity against mouse P388 cells assessed as host survival at 5 mg/kg qd relative to control. It is filed as functional.
Test [16] relates to P388. The experiment in a line: In-vivo antileukemic activity against mouse P388 cells assessed as host survival at 75 mg/kg qd relative to control. It is filed as functional.
The test system of test [17] is P388. The experiment in a line: In-vivo antileukemic activity against mouse P388 cells assessed as host survival at 160 mg/kg qd relative to control. It is filed as functional.
For test [18], the system named is P388. The experiment in a line: In-vivo antileukemic activity against mouse P388 cells assessed as host survival at 20 mg/kg qd relative to control. Format: functional.
Test [19] deals with P388. The experiment in a line: In-vivo antileukemic activity against mouse P388 cells assessed as host survival at 10 mg/kg qd relative to control. It is filed as functional.
The test system of test [20] is P388. The experiment in a line: In-vivo antileukemic activity against mouse P388 cells assessed as host survival at 40 mg/kg qd relative to control. Format: functional.
The subject of test [21] is P388. The experiment in a line: In-vivo antileukemic activity against mouse P388 cells assessed as host survival at 64 mg/kg qd relative to control. Format: functional.
Test [22] relates to P388. The experiment in a line: In-vivo antileukemic activity against mouse P388 cells assessed as host survival at 64 mg/kg qd. Format: functional, organism-based. Further details: dose 64 mg/kg.
Test [23] relates to P388. The experiment in a line: In-vivo antileukemic activity against mouse P388 cells assessed as host survival at 20 mg/kg qd. Format: functional, organism-based. Also on record: dose 20 mg/kg.
The test system of test [24] is P388. The experiment in a line: In-vivo antileukemic activity against mouse P388 cells assessed as host survival at 168 mg/kg qd. Format: functional, organism-based. Further details: dose 168 mg/kg.
The test system of test [25] is P388. The experiment in a line: In-vivo antileukemic activity against mouse P388 cells assessed as host survival at 10 mg/kg qd. It is filed as functional, organism-based. Further details: dose 10 mg/kg.
Test [26] relates to P388. The experiment in a line: In-vivo antileukemic activity against mouse P388 cells assessed as host survival at 80 mg/kg qd. Also on record: dose 80 mg/kg. Format: functional, organism-based.
For test [27], the system named is P388. The experiment in a line: In-vivo antileukemic activity against mouse P388 cells assessed as host survival at 120 mg/kg qd. It is filed as functional, organism-based. Further details: dose 120 mg/kg.
For test [28], the system named is P388. The experiment in a line: In-vivo antileukemic activity against mouse P388 cells assessed as host survival at 160 mg/kg qd. Further details: dose 160 mg/kg. It is filed as functional, organism-based.
Test [29] concerns P388. The experiment in a line: In-vivo antileukemic activity against mouse P388 cells assessed as host survival at 120 mg/kg qd relative to control. Format: functional.
Test [30] deals with P388. The experiment in a line: In-vivo antileukemic activity against mouse P388 cells assessed as host survival at 40 mg/kg qd. Format: functional, organism-based. Also on record: dose 40 mg/kg.

Take `COc1cc2cc3c4cc(OC)c(OC)cc4cc(C)[n+]3cc2cc1OC.[Cl-]`: the T/C turned out to be 134 in [1]; 131 in [3]; 134 in test [4]; 139 in [5]; 139 in test [8]. In addition, the outcome in [2], in test [6], in [7] and in test [9] was Active.

`CC(=O)OS(=O)(=O)[O-].COc1cc2cc3c4cc(OC)c(OC)cc4cc[n+]3c(C)c2cc1OC`: the T/C in [10] stood at 175; in test [1], 180; in [11] it was 167; in [4] it was 176; in test [13] it was 150; in test [14], 175. The T/C in [15] turned out to be 157; in test [16] it was 175; in test [17], 170; in [18] it was 173; in [19] it was 159; in test [20], 173. In [21], the T/C amounted to 182. Also, the result in test [2], in [12], in test [9] and in [22] was Active.

Regarding `CC(=O)OS(=O)(=O)[O-].COc1cc2cc[n+]3c(C)c4ccc(OC)c(OC)c4cc3c2cc1OC`, the outcome in [23], in [12] and in [25] was Active. The T/C in test [15] is recorded as 127; in test [18], 171; in [19], 136; in test [20], 177. The result in [24] was inactive.

On to `CC(=O)OS(=O)(=O)[O-].COc1cc2cc3cc4cc(OC)c(OC)cc4c(C)[n+]3cc2cc1OC`, for which the outcome in test [26], in test [27], in test [23], in [12], in [28] and in test [25] was Active. Further, in [30], the result was Active. The T/C in [14] is given as 180; in test [15], 140; in test [29], 150; in test [17], 200; in [18] it was 180; in test [19], 145. In addition, the T/C in [20] is given as 150.

Turning to `CC(=O)OS(=O)(=O)[O-].COc1cc2c[n+](C)c3c4ccc(OC)c(OC)c4ccc3c2cc1OC`, the T/C worked out at 174 in [1]; 209 in test [4]; 170 in [14]; 164 in test [5]; 179 in test [29]; 154 in test [18]. The figures for the T/C in test [19] and in test [20] were 149 and 153, respectively. Further, the outcome in [2], in test [26], in test [27], in test [23], in test [6] and in test [25] was Active. The result in [9] was Active.

Values taken from ChEMBL document CHEMBL3272146, “Tetramethoxydibenzoquinolizinium salts. Preparation and antileukemic activity of some positional and structural isomers of coralyne” (1976).
